According to US11312727B1, “Macrocyclic flu endonuclease inhibitors” (Janssen BioPharma, Inc., priority 2018, dated 2022):

What was measured:
in vitro = conditions: human, CC50, uninfected A549 cells, CellTiter-Glo
[1] = system: Influenza strain A549 A/WSN/33 (H1N1); assay: microbe, parasite or virus in culture; format: cell-based; conditions: Influenza A virus, A549, 20 h, A549 cells, influenza A/WSN/33 (H1N1), 20 hours incubation; read-out: A549_A(H1N1) EC50

Row | Structure (SMILES) | CC50 (in vitro) [nM] | EC50 [1] [nM]
1 | O=C1c2c(O)c(=O)ccn2N2CN1C/C=C\COc1cccc3c1[C@@H]2c1ccccc1SC3 [Compound 46A, (21R,Z)-16-hydroxy-6,10,13,21a-tetrahydro-7,8-(epiprop[1]en[1]yl[3]ylidene)-14,21-methanobenzo[6,7]thiepino[4,5-c]pyrido[1,2-f][1]oxa[5,6,9]triazacyclotridecine-15,17-dione] | > 2000 | 64
2 | O=C1c2c(O)c(=O)ccn2N2CN1C/C=C\COc1cccc3c1[C@H]2c1ccccc1SC3 [Compound 46B, (21S,Z)-16-hydroxy-6,10,13,21a-tetrahydro-7,8-(epiprop[1]en[1]yl[3]ylidene)-14,21-methanobenzo[6,7]thiepino[4,5-c]pyrido[1,2-f][1]oxa[5,6,9]triazacyclotridecine-15,17-dione] | > 100 | 3
3 | O=C1c2c(O)c(=O)ccn2N2CN1C/C=C/COc1cccc3c1[C@@H]2c1ccccc1SC3 [Compound 46C, (17R,E)-12-hydroxy-2,6,9,17a-tetrahydro-3,4-(epiprop[1]en[1]yl[3]ylidene)-10,17-methanobenzo[6,7]thiepino[4,5-c]pyrido[1,2-f][1]oxa[5,6,9]triazacyclotridecine-11,13-dione] | > 2000 | 330
4 | O=C1c2c(O)c(=O)ccn2N2CN1C/C=C/COc1cccc3c1[C@H]2c1ccccc1SC3 [Compound 46D, (17S,E)-12-hydroxy-2,6,9,17a-tetrahydro-3,4-(epiprop[1]en[1]yl[3]ylidene)-10,17-methanobenzo[6,7]thiepino[4,5-c]pyrido[1,2-f][1]oxa[5,6,9]triazacyclotridecine-11,13-dione] | > 200 | 1
5 | O=C1c2c(O)c(=O)ccn2N2CN1CCCCCOc1cccc3c1C2c1ccccc1SC3 (stereo not shown) [Compound 48] | > 2000 | 32
6 | CN1Cc2ccccc2C(c2ccccc2)N2CN(CCC1=O)C(=O)c1c(O)c(=O)ccn12 (stereo not shown) [Compound 50, 12-hydroxy-6-methyl-18-phenyl-5,8,9,18-tetrahydro-10,17-methanobenzo[k]pyrido[1,2-b][1,2,5,9]tetraazacyclotridecine-7,11,13(6H)-trione] | > 2000 | > 1000
7 | O=C1c2c(O)c(=O)ccn2N2CN1CC/C=C\c1ccccc1C2c1ccccc1 (stereo not shown) [Compound 54, (*Z)-4-hydroxy-15-phenyl-8,15-dihydro-7H-6,16-methanobenzo[j]pyrido[1,2-b][1,2,5]triazacyclododecine-3,5-dione] | > 20000 | 117
8 | O=C1c2c(O)c(=O)ccn2N2CN1CCCCCCOc1ccccc1C2c1ccccc1 (stereo not shown) [Compound 55, 15-hydroxy-2-phenyl-12,13,14,16-tetrahydro-11H-4-oxa-1(1,3)-pyrido[2,1-f][1,2,4]triazina-3(1,2)-benzenacyclodecaphane-14,16-dione] | > 2000 | 880
9 | O=C1c2c(O)c(=O)ccn2N2CN1C/C=C\CCCOc1ccccc1C2c1ccccc1 (stereo not shown) [Compound 60, (*Z)-15-hydroxy-2-phenyl-12,13,14,16-tetrahydro-11H-4-oxa-1(1,3)-pyrido[2,1-f][1,2,4]triazina-3(1,2)-benzenacyclodecaphan-8-ene-14,16-dione] | > 2000 | > 1000
10 | O=C1c2c(O)c(=O)ccn2N2CN1CC/C=C\c1cccc3c1C2c1ccccc1CC3 (stereo not shown) [Compound 73, (11*Z)-6-hydroxy-10,16,17,21b-tetrahydro-9H-1,8-methanobenzo[4,5]cyclohepta[1,2,3-op]pyrido[1,2-c][2,3,6]benzotriazacyclododecine-5,7-dione] | > 2000 | 16
11 | O=C1c2c(O)c(=O)ccn2N2CN1C1(/C=C/COc3ccccc3[C@@H]2c2ccccc2)CC1 [Compound 79A, (18'S,E)-12′-hydroxy-18′-phenyl-6′H,18′H-spiro[cyclopropane-1,9′-[10,17]methanobenzo[b]pyrido[1,2-f][1]oxa[5,6,9]triazacyclotridecine]-11′,13′-dione] | > 1000 | > 500
